From ChEMBL document CHEMBL6134930, “Discovery of AB801, a Potent and Selective Inhibitor of AXL Receptor Tyrosine Kinase for Use in Cancer Therapy” (J Med Chem, 2025)
The source made the active and inactive calls. No cut-off for these calls is given here.

Key:
[1] = AUC (0 to 24 hrs) in human (healthy individuals) at 10 mg, single oral dose; format: ADME; conditions: in vivo
Cytochrome P450 2B6 = biological target: T1, Cytochrome P450 2B6 (Homo sapiens, UniProt P20813); experiment: Inhibition of CYP2B6 (unknown origin) measured after 30 mins; format: ADME
T1 sequence (P20813 whole entry): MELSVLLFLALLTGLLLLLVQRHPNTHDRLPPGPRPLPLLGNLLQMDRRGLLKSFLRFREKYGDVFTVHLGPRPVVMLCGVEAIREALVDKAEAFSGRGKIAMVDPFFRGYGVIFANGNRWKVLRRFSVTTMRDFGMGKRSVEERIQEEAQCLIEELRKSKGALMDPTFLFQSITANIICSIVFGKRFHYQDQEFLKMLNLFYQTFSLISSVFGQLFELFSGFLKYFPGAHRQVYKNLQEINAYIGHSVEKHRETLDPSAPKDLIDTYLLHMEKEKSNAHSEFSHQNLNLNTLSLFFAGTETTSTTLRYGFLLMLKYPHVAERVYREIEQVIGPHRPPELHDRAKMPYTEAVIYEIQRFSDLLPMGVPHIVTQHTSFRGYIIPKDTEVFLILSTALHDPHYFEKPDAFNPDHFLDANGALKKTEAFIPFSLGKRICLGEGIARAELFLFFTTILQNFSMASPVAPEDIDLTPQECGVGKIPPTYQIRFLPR

[2] = Tmax in human (healthy individuals) at 90 mg, single oral dose; format: ADME; conditions: in vivo
CYP2C9 = CYP2C9 (Homo sapiens, UniProt P11712); experiment: Time dependent inhibition of CYP2C9 (unknown origin) at 30 uM measured after 30 mins relative to control; format: ADME; conditions: read-out: TDI
Sequence of CYP2C9 (P11712 whole entry): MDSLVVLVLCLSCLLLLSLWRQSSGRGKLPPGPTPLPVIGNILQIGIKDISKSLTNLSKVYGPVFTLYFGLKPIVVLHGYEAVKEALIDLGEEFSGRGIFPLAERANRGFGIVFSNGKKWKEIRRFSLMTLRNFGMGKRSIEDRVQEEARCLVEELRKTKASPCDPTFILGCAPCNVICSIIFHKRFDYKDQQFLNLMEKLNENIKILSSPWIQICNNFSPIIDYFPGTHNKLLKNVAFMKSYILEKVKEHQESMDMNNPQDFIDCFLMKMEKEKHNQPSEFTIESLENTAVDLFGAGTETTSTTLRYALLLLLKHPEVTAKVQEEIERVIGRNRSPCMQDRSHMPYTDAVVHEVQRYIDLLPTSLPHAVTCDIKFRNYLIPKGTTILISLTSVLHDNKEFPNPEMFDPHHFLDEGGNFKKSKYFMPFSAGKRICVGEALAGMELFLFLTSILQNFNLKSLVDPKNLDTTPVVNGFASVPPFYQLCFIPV

Cytochrome P450 2D6 = Cytochrome P450 2D6 (Homo sapiens, UniProt P10635); experiment: Inhibition of CYP2D6 (unknown origin) measured after 30 mins; format: ADME
Sequence of Cytochrome P450 2D6 (P10635 whole entry): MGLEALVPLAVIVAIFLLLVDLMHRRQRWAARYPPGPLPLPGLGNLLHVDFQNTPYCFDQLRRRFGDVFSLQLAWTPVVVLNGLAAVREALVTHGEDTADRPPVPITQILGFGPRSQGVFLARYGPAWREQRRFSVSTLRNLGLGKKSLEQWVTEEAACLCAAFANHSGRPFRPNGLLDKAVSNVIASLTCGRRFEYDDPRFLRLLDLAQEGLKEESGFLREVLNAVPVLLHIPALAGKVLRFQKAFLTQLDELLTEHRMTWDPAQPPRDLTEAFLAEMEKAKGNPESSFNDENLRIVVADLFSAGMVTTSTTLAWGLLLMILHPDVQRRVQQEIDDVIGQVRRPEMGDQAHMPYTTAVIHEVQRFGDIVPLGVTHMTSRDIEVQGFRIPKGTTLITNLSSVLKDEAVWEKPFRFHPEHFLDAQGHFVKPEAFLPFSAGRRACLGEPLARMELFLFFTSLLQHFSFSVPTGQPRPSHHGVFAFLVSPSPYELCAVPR

[3] = Tmax in human (healthy individuals) at 30 mg, single oral dose; format: ADME; conditions: in vivo
[4] = AUC (0 to 24 hrs) in human (healthy individuals) at 30 mg, single oral dose; format: ADME; conditions: in vivo
[5] = Half life in human (healthy individuals) at 30 mg, single oral dose; format: ADME; conditions: in vivo
[6] = Selectivity ratio, ratio of Ki for HPK1 (unknown origin) to Ki for AXL (unknown origin)
[7] = Selectivity ratio, ratio of Ki for TRKA (unknown origin) to Ki for AXL (unknown origin)
[8] = Half life in human (healthy individuals) at 270 mg, single oral dose; format: ADME; conditions: in vivo
[9] = Selectivity ratio, ratio of Ki for DRAK1 (unknown origin) to Ki for AXL (unknown origin)
[10] = Toxicity in mouse xenografted with human 786-0 cells assessed as body weight in presence of sunitinib at 30 mg/kg, po once daily for 15 days; format: organism-based; conditions: in vivo, 360 h, time 15 day
[11] = Efflux ratio in human Caco-2 cells; format: ADME, cell-based
CYP3A4 = CYP3A4 (Homo sapiens, UniProt P08684); experiment: Time dependent inhibition of CYP3A4 (unknown origin) using midazolam as substrate at 30 uM measured after 30 mins relative to control; format: ADME; conditions: probe midazolam, read-out: TDI
Sequence of CYP3A4 (P08684 whole entry): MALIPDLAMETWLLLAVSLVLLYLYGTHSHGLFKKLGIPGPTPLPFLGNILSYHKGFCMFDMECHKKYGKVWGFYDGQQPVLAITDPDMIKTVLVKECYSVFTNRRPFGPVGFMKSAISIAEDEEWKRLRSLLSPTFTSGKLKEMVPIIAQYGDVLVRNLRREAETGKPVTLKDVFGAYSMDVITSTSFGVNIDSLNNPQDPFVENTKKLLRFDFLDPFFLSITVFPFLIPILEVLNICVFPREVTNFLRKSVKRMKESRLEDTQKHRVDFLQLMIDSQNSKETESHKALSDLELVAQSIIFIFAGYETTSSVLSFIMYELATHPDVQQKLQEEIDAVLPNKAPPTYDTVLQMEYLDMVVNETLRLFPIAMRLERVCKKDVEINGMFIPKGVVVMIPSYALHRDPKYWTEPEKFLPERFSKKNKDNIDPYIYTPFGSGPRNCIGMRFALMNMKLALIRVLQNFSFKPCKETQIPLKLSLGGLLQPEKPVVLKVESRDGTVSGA

[12] = AUC (0 to 120 hrs) in human (healthy individuals) at 30 mg, single oral dose; format: ADME; conditions: in vivo
[13] = AUCinf in Sprague-Dawley rat at 2 mg/kg, po measured up to 8 hrs by LC-MS/MS analysis; format: ADME, organism-based; conditions: in vivo
[14] = Metabolic stability in human hepatocytes assessed as intrinsic clearance measured per 10^6 cells; format: ADME, cell-based, Hepatocyte; conditions: read-out: CLH
[15] = Selectivity ratio, ratio of Ki for MERTK (unknown origin) to Ki for AXL (unknown origin)
[16] = Clearance in cynomolgus monkey at 0.5 mg/kg, iv measured up to 24 hrs by LC-MS/MS analysis; format: ADME, organism-based, Macaca fascicularis; conditions: in vivo
CYP2B6 = biological target: T2, CYP2B6 (Homo sapiens, UniProt P20813); experiment: Time dependent inhibition of CYP2B6 (unknown origin) at 30 uM measured after 30 mins relative to control; format: ADME; conditions: read-out: TDI
T2 sequence (P20813 whole entry): T1 sequence (P20813 whole entry)

[17] = Clearance in Sprague-Dawley rat at 0.5 mg/kg, iv measured up to 24 hrs by LC-MS/MS analysis; format: ADME, organism-based; conditions: in vivo
[18] = Cmax in human (healthy individuals) at 90 mg, single oral dose measured uo to 120 hrs; format: ADME; conditions: in vivo
786-0 [19] = experiment: Anti-tumor activity against human 786-0 cells xenografted in mouse model assessed as increase in soluble AXL level in plasma at 30 mg/kg, po once daily for 15 days; format: functional, organism-based; conditions: time 15.0 day
[20] = Clearance in CD-1 mouse at 0.5 mg/kg, iv measured up to 24 hrs by LC-MS/MS analysis; format: ADME, organism-based; conditions: in vivo
[21] = AUC (0 to 120 hrs) in human (healthy individuals) at 10 mg, single oral dose; format: ADME; conditions: in vivo
[22] = Apparent permeability of compound from apical to basolateral side in human Caco-2 cells; format: ADME, cell-based; conditions: read-out: permeability
[23] = AUC (0 to 24 hrs) in human (healthy individuals) at 90 mg, single oral dose; format: ADME; conditions: in vivo
CYP2D6 = CYP2D6 (Homo sapiens, UniProt P10635); experiment: Time dependent inhibition of CYP2D6 (unknown origin) at 30 uM measured after 30 mins relative to control; format: ADME; conditions: read-out: TDI
Sequence of CYP2D6 (P10635 whole entry): as the sequence (P10635 whole entry) above

786-0 [24] = experiment: Anti-tumor activity against human 786-0 cells xenografted in mouse model assessed as reduction in tumor volume in presence of sunitinib at 30 mg/kg, po once daily for 15 days; format: functional, organism-based; conditions: time 15.0 day
CYP2C8 = biological target: T3, CYP2C8 (Homo sapiens, UniProt P10632); experiment: Time dependent inhibition of CYP2C8 (unknown origin) at 30 uM measured after 30 mins relative to control; format: ADME; conditions: read-out: TDI
T3 sequence (P10632 whole entry): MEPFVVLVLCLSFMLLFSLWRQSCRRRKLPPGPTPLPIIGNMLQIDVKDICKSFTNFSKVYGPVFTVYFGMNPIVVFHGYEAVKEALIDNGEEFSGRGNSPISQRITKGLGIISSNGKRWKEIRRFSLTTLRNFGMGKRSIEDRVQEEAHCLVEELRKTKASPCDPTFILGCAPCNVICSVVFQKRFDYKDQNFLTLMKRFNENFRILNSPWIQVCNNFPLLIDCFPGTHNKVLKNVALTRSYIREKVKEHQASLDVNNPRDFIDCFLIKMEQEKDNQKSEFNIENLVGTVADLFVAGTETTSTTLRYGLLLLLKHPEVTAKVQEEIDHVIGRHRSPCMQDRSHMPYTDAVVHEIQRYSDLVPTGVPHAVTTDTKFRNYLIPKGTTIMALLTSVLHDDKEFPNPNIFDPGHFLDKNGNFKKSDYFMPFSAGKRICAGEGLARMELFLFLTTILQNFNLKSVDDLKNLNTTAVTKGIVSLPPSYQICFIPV

For `Cc1cccnc1-c1ccc(-c2n[nH]c3ncc(-c4ccc5c(c4)CC[C@@H](N4C6COCC4C6)CC5)cc23)nc1`, the AUC(0-t) [1] was 0.055 µg·h/mL, the IC50 (Cytochrome P450 2B6) was > 100 µM and the Tmax [2] was 8 h. The inhibition at 0.5 h, 30 µM (CYP2C9) was 10%, the IC50 (Cytochrome P450 2D6) was 11 µM and the Tmax [3] was 8 h. For the same molecule, the AUC(0-t) [4] was 0.189 µg·h/mL, the half-life [5] was 72 h and the Ratio Ki [6] was 280. The Ratio Ki [7] was 330, the half-life [8] was 40 h and the Ratio Ki [9] was 47. The Activity [10] was “Non-toxic”, the efflux ratio [11] was 1.9 and the inhibition at 0.5 h, 30 µM (CYP3A4) was 16%. It also gave an AUC(0-t) [12] of 0.614 µg·h/mL, an AUC(0-inf) [13] of 1.8 µg·h/mL and a hepatocyte CLint [14] of 1.8 µL/min/1e6 cells. It also gave a Ratio Ki [15] of 880, a clearance [16] of 0.76 L/h/kg and an inhibition at 0.5 h, 30 µM (CYP2B6) of 12%. For the same molecule, the clearance [17] was 0.65 L/h/kg, the Cmax [18] was 0.04 µg/mL and the Activity (786-0 [19]) was “Active”. The clearance [20] was 0.53 L/h/kg, the AUC(0-t) [21] was 0.18 µg·h/mL and the Papp A→B [22] was 17 nm/s. For the same molecule, the AUC(0-t) [23] was 0.707 µg·h/mL, the inhibition at 0.5 h, 30 µM (CYP2D6) was 0% and the Activity (786-0 [24]) was “Active”. It also gave an inhibition at 0.5 h, 30 µM (CYP2C8) of 0%.
